The values that follow come from patent publication US6716824B1, “Treatment of pancreatic adenocarcinoma by cytotoxic gene therapy” (priority 1999, dated 2004).

One test has as its system F9 cells. Nature of the test: Ganciclovir dose response curve, untransfected cells, MTS assay. Format: cell-based, mouse. Particulars: n=8. The procedure:
(§1) Dose response curves with GCV for untransfected NIT-1 and F9 (control) cells were performed prior to cytoxicity studies with genetic constructs. NIT-1 cells were plated into a ninety-six well plate at a density of 5,000 cells per well and treated with GCV (0.1 to 2.5 μg/ml) to determine a dose response curve to GCV alone. The cells were treated daily for five days and cell viability was ascertained with an MTS assay. […] The GCV toxicity dose response curve for F9 cells resembled other cell lines (FIG. I B). […] Note that at concentrations of GCV 0.25 μg/ml and higher a significant decrease in cell survival is observed, n=8, *p<0.05, Unpaired Student t-test.
A general note: Tetrazolium assays rely on reduction of a dye to a coloured formazan, in cell work by metabolically active cells.

The next test has as its system NIT-1 cells. The description is as above. It counts as cell-based, mouse. The conditions noted are these: untransfected NIT-1 cells. The procedure:
as §1

The subject of the next test is A549 cells. Described as above. The conditions noted are these: five days. Format: cell-based, human. The procedure:
(§2) PANC-1, CAPAN-1 MIA-1 and A549 cells were plated into a ninety-six well plate at a density of 5,000 cells per well and given between 0 to 500 μg/ml of GCV to determine a dose response curve to GCV alone. The cells were treated for five days and cell viability was ascertained with an MTS assay. Results were plotted on a graph as OD 490 nm vs. GCV concentration.

Another test has as its system CAPAN-1 cells. Described as above. Format: cell-based, human. The conditions noted are these: untransfected CAPAN-1 cells. The procedure: as §2
In the next test the test system is MIA-1 cells. The description is as above. It counts as cell-based, human. Particulars: untransfected MIA-1 cells, five days. The procedure:
as §2

A further test deals with PANC-1 cells. The test is described as above. Format: cell-based, human. Particulars: untransfected PANC-1 cells. The procedure:
as §2

For another test, the system named is PANC-1 tumors. The test is described as follows: Treatment of human ductal pancreatic adenocarcinoma tumors in vivo, ICR/scid mice injected ip with PANC-1 cells. Also on record: species or system mouse. Particulars: PANC-1 tumors in ICR/scid mice, with GCV 40 mg/kg ip 7 days. The procedure: The effectiveness of RIPlacZ and RIP-tk gene constructs against PANC-1 was then studied in vivo using a SCID mouse model. SCID mice are immunodeficient and will not reject a human pancreatic cancer cell line. PANC-1 cells were injected intraperitoneally and tumors were visible by day 24. Once the model was established in the laboratory, the mice were treated with the gene therapy beginning at day 24 post-tumor-injection.
Six mice received seven days of PBS IP.
Three additional mice inoculated with PANC-1 cells received the RIPlacZ gene and were sacrificed thirty-six hours later.
Additional injected mice with tumors (n=3) received RIPlacZ and their tissues were fixed and stained with X-gal. Study endpoints consisted of monitoring tumor size and the presence of blue cells after X-gal staining.

For a further test, the system named is NIT-1 cell tumors. Nature of the test: Treatment of β-cell adenomas (insulinomas) in vivo, ICR/scid mice injected IP with NIT-1 cells. Particulars: ICR/scid mice with NIT-1 cells; genes via liposomes IP day 31, GCV 40 mg/kg IP seven days.

Experimental for NIT-1 cell tumors: To estimate tumor growth blood glucose was measured from the tail vein using a glucometer every other day.
Twenty-seven female ICR/scid mice, age 6-10 weeks old underwent intraperitoneal injections of 5×10^6 NIT-1 cells and nine female ICR/scid mice, age 6-10 weeks old underwent intraperitoneal injections of PBS. At day 31, the mice were randomized to receive either the RIP-tk gene, the RIPlacZ gene, or nothing. The RIP-lac-Z construct served both as a control and to localize gene expression. The genes were delivered via liposomes IP (liposomes provided by Dr. Nancy Smyth-Templeton Center for Gene Therapy and Department of Cell Biology, Baylor College of Medicine) and mixed as described (Smyth-Templeton N, et al., 15 Nature Biotechnology 647-652 (1997)). Six mice were randomized to receive the RIP-tk gene followed by seven days of GCV (40 mg/kg IP). Six mice were randomized to receive the RIP-lacZ gene followed by seven days of GVC (40 mg/kg IP). Six mice were randomized to receive PBS followed by seven days of GCV (40 mg/kg IP). Six mice that were inoculated with NIT-1 cells were randomized to receive seven days of PBS. […]
In another murine hypoglycemic tumor model, 5×10^6 NIT-1 cells (or PBS) were injected intraperitoneally (IP) into ICR/scid mice (n=12 per group). […] Blood glucose values, animal survival, and blue cells after X-gal staining were recorded.

With `Nc1nc(O)c2ncn(COC(CO)CO)c2n1` [GCV, Ganciclovir], the “GCV toxicity dose response (in words)” value with F9 cells is given as “resembles that of other published cell lines”. The “maximum dose of GCV one can use to treat cells in culture” value in the test with NIT-1 cells was 0.20 µg/mL; in the test on CAPAN-1 cells, 15 µg/mL; with PANC-1 cells, 20 µg/mL. Moreover, the “GCV dosage significantly decreasing cell OD 490” value in the test with A549 cells was “greater than 50 μg/ml”; in the test on CAPAN-1 cells (five days), “greater than 20 μg/ml”; in the test with MIA-1 cells it was “greater than 20 μg/ml”; in the test on PANC-1 cells (five days, n=8), “greater than 50 μg/ml”. For the same compound, the “tumor burden / tumor size (in words)” value in the test with PANC-1 tumors is reported as “developed large peri-pancreatic intraperitoneal tumors”. In the test with NIT-1 cell tumors, the blood glucose levels entry is on record as “rapid decline in blood glucose levels”.
